These results are taken from patent US20130030012A1, “COMPOUNDS” (Glaxo Group Limited, priority 2011, published 2013).

The subject of test [1] is experimental autoimmune encephalomyelitis (EAE) rats. In words: Rat experimental autoimmune encephalomyelitis (EAE) model, preventive treatment. Type of test: in vivo. The method, then:
A further study was carried out to study the impact of Lp-PLA2 inhibitors on modulating M1/M2 imbalance. In this study, rats were induced to develop experimental autoimmune encephalomyelitis (EAE) by immunization with myelin basic protein (MBP) antigen and treated with a known Lp-PLA2 inhibitor: 5-((9-Methoxy-4-oxo-6,7-dihydro-4H-pyrimido[6,1-a]isoquinolin-2-yl)oxy)-2-(3-(trifluoromethyl)phenoxy)benzonitrile (See PCT application no. PCT/CN2011/001597). In this preventive treatment model, the compound was administered at day 0 (day of immunization) and continued to administer until day 22. The study lasted for 25 days. Rats were subsequently monitored for symptoms of EAE. Rats were immunized with MBP to develop EAE and symptoms were monitored daily. Plasma Lp-PLA2 activity, OxLDL, and LysoPC concentration were determined at different time points through the course of EAE.

The subject of test [2] is proinflammatory (M1) and anti-inflammatory (M2) markers in splenic and CNS infiltrating macrophages. In words: Ex vivo analysis of M1 and M2 markers in macrophages of EAE rats by realtime PCR. More on the design: species or system rat. The settings on record: spleen harvested day 13 post MBP-immunization. The method, then:
Ex vivo analysis of proinflammatory (M1) and anti-inflammatory (M2) markers in control and compound treated EAE rats. Splenic macrophages were harvested at day 13 post MBP-immunization and assayed for expression of a variety of markers by realtime PCR. CNS infiltrating cells were harvested and macrophages were analyzed for expression of M1 and M2 markers by realtime PCR.

In test [3] the target is T1, recombinant human Lp-PLA2 (Homo sapiens, UniProt Q13093).
T1 sequence (Q13093 22-441): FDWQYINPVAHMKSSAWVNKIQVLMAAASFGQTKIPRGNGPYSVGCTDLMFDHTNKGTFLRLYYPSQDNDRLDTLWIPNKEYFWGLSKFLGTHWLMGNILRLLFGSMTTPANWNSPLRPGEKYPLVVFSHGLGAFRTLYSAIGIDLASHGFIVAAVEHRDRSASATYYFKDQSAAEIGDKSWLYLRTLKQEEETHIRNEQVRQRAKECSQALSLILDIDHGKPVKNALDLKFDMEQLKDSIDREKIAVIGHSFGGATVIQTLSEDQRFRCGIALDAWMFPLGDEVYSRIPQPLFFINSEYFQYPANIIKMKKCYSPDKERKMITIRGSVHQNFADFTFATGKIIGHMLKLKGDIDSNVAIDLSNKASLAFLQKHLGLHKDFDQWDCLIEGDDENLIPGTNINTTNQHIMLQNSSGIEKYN
The experiment in a line: Recombinant human Lp-PLA2 assay (rhLp-PLA2, PED6 assay). Type of test: biochemical. The settings on record: upper limit for pIC50 in this assay is 9.3. A digest of the protocol: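 Enzyme at 4 nM (or 110 pM) in 50 mM HEPES pH 7.4, 150 mM NaCl, 1 mM CHAPS, preincubated with compound 30 min. PED6 substrate ([…] 5 μM, as printed) then added and reaction run 20 min at room temperature, protected from light. Fluorescence read at ex 480/em 540; pIC50 from curve fitting.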

Test [4] deals with T2, Lp-PLA2 in human plasma (Homo sapiens, UniProt Q13093).
T2 construct: from tissue; host or cells: pooled human plasma
T2 sequence (Q13093 22-441): T1 sequence (Q13093 22-441)
The experiment in a line: Lp-PLA2 human plasma assay (Thio-PAF assay). The settings on record: pooled human plasma; read-out: pIC50 values in the thio-PAF assay (converted). The class given is biochemical. A digest of the protocol:
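Pooled human plasma preincubated 30 min with compounds, then given substrate mix of 2.5 mM 2-thio-PAF, […] and 3.2 mM NEM (concentrations in substrate solution) in pH 7.4 HEPES/NaCl/CHAPS buffer. Quenched with TFA after 2 min; CPM-thiol fluorescence read at ex 380/em 485 to give pIC50.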

The mark [5] stands for this setting: read-out: pIC50 values in the PED6 assay (converted).

Read-outs that look alike come from different tables or passages of the source. Bounds are passed on as bounds.

Consider `COc1ccc2c(c1)CCn1c-2cc(Oc2ccc(Oc3cccc(C(F)(F)F)c3)c(C#N)c2)nc1=O` [5-((9-Methoxy-4-oxo-6,7-dihydro-4H-pyrimido[6,1-a]isoquinolin-2-yl)oxy)-2-(3-(trifluoromethyl)phenoxy)benzonitrile], for which, in test [1] (rat EAE plasma), the LysoPC levels entry is “decreased” and the “plasma Lp-PLA2 activity” value is recorded as “decreased Lp-PLA2 activity”. In addition, the clinical disease result in test [1] (rat EAE, MBP immunization, compound administered day 0 to day 22) is recorded as “reduction in clinical disease”. Also, in test [2], the M1 markers expression result is “decrease in M1 markers” and the M2 markers expression entry is recorded as “increase in M2 markers”.
Take `CN1CCCn2c1cc(OCc1ccc(Oc3cccc(F)c3)c(C#N)c1)nc2=O` [Example 80, 2-(3-fluorophenoxy)-5-(((1-methyl-6-oxo-2,3,4,6-tetrahydro-1H-pyrimido[6-a]pyrimidin-8-yl)oxy)methyl)benzonitrile]: the values for the IC50 in test [3] (setting [5]) and in test [4] were at most 1 nM and at most 100 nM, respectively.
For `O=c1nc(OCc2cc(F)c(Oc3ccc(F)c(C(F)(F)F)c3)c(F)c2)cc2n1CCCN2` [Example 93, 8-((3,5-difluoro-4-(4-fluoro-3-(trifluoromethyl)phenoxy)benzyl)oxy)-3,4-dihydro-1H-pyrimido[1,6-a]pyrimidin-6(2H)-one], the IC50 in test [3] (Table 1, read-out: rhLp-PLA2 (PED6 assay) (pIC50) (converted)) is at most 0.501 nM; in test [3] (setting [5]), at most 1 nM; in test [4], at most 100 nM.
Consider `CN1CCCn2c1cc(OCc1ccc(Oc3ccc(F)c(Cl)c3)c(F)c1)nc2=O` [Example 15, 8-((4-(3-chloro-4-fluorophenoxy)-3-fluorobenzyl)oxy)-1-methyl-3,4-dihydro-1H-pyrimido[1,6-a]pyrimidin-6(2H)-one], for which the IC50 was at most 10 nM in test [3] (setting [5]) and at most 100 nM in test [4].
Turning to `O=c1nc(OCc2cc(F)c(Oc3ccc(F)cc3)c(F)c2)cc2n1CCCN2` [Example 114, 8-((3,5-difluoro-4-(4-fluorophenoxy)benzyl)oxy)-3,4-dihydro-1H-pyrimido[1,6-a]pyrimidin-6(2H)-one], the values for the IC50 in test [3] (setting [5]) and in test [4] were at most 1 nM and at most 100 nM, respectively.
